Results taken from PubChem BioAssay (NCI).
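All cell lines were grown in 96-well plates and treated with compound for 48 hours. Here, GI50 denotes the concentration required for 50% inhibition of growth. TGI: total growth inhibition.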

Legend:
Test in all cases: NCI anticancer screen, dose series, 48 h
SK-MEL-2 melanoma = test system: SK-MEL-2 melanoma
RPMI-8226 leukemia = test system: RPMI-8226 leukemia
OVCAR-3 ovarian = test system: OVCAR-3 ovarian
OVCAR-5 ovarian = test system: OVCAR-5 ovarian
SR leukemia = test system: SR leukemia
NCI-H522 lung = test system: NCI-H522 lung
HCC-2998 colon = test system: HCC-2998 colon
K-562 leukemia = test system: K-562 leukemia
MALME-3M melanoma = test system: MALME-3M melanoma
HCT-116 colon = test system: HCT-116 colon
SN12C renal = test system: SN12C renal
HT29 colon = test system: HT29 colon
KM12 colon = test system: KM12 colon
CCRF-CEM leukemia = test system: CCRF-CEM leukemia
NCI-H23 lung = test system: NCI-H23 lung
HOP-62 NSCLC = test system: HOP-62 NSCLC
ACHN renal = test system: ACHN renal
HS 578T breast = test system: HS 578T breast
HCT-15 colon = test system: HCT-15 colon
MOLT-4 leukemia = test system: MOLT-4 leukemia
SK-MEL-28 melanoma = test system: SK-MEL-28 melanoma
HL-60(TB) leukemia = test system: HL-60(TB) leukemia
NCI-H226 lung = test system: NCI-H226 lung
SF-268 CNS = test system: SF-268 CNS
NCI-H460 lung = test system: NCI-H460 lung
EKVX NSCLC = test system: EKVX NSCLC
PC-3 prostate = test system: PC-3 prostate
SF-295 CNS = test system: SF-295 CNS
TK-10 renal = test system: TK-10 renal
786-0 renal = test system: 786-0 renal
MCF7 breast = test system: MCF7 breast
SF-539 CNS = test system: SF-539 CNS
OVCAR-8 ovarian = test system: OVCAR-8 ovarian
U251 CNS = test system: U251 CNS
SNB-75 CNS = test system: SNB-75 CNS
UACC-257 melanoma = test system: UACC-257 melanoma
MDA-MB-435 = test system: MDA-MB-435
UACC-62 melanoma = test system: UACC-62 melanoma
SNB-19 CNS = test system: SNB-19 CNS
M14 melanoma = test system: M14 melanoma
T-47D breast = test system: T-47D breast
RXF 393 renal = test system: RXF 393 renal
SK-MEL-5 melanoma = test system: SK-MEL-5 melanoma
A498 renal = test system: A498 renal
COLO 205 colon = test system: COLO 205 colon
CAKI-1 renal = test system: CAKI-1 renal
IGROV1 ovarian = test system: IGROV1 ovarian
LOX IMVI melanoma = test system: LOX IMVI melanoma
DU-145 prostate = test system: DU-145 prostate
HOP-92 NSCLC = test system: HOP-92 NSCLC
A549 NSCLC = test system: A549 NSCLC
NCI/ADR-RES ovarian = test system: NCI/ADR-RES ovarian
MDA-MB-231 breast = test system: MDA-MB-231 breast
SK-OV-3 ovarian = test system: SK-OV-3 ovarian
SW-620 colon = test system: SW-620 colon
OVCAR-4 ovarian = test system: OVCAR-4 ovarian
UO-31 renal = test system: UO-31 renal

O=C(NCCCn1ccnc1[N+](=O)[O-])C(=O)NCCCn1ccnc1[N+](=O)[O-]
TGI (SK-MEL-2 melanoma): > 100 µM | TGI (RPMI-8226 leukemia): > 100 µM | TGI (OVCAR-3 ovarian): > 100 µM | TGI (OVCAR-5 ovarian): > 100 µM | TGI (SR leukemia): > 100 µM | TGI (NCI-H522 lung): > 100 µM | TGI (HCC-2998 colon): > 100 µM | TGI (K-562 leukemia): > 100 µM | TGI (MALME-3M melanoma): > 100 µM | TGI (HCT-116 colon): > 100 µM | TGI (SN12C renal): > 100 µM | TGI (HT29 colon): > 100 µM | TGI (KM12 colon): > 100 µM | TGI (CCRF-CEM leukemia): > 100 µM | TGI (NCI-H23 lung): > 100 µM | TGI (HOP-62 NSCLC): > 100 µM | TGI (ACHN renal): > 100 µM | TGI (HS 578T breast): > 100 µM | TGI (HCT-15 colon): > 100 µM | TGI (MOLT-4 leukemia): > 100 µM | TGI (SK-MEL-28 melanoma): > 100 µM | TGI (HL-60(TB) leukemia): > 100 µM | TGI (NCI-H226 lung): > 100 µM | TGI (SF-268 CNS): > 100 µM | TGI (NCI-H460 lung): > 100 µM | TGI (EKVX NSCLC): > 100 µM | TGI (PC-3 prostate): > 100 µM | TGI (SF-295 CNS): > 100 µM | TGI (TK-10 renal): > 100 µM | TGI (786-0 renal): > 100 µM | TGI (MCF7 breast): > 100 µM | TGI (SF-539 CNS): > 100 µM | TGI (OVCAR-8 ovarian): > 100 µM | TGI (U251 CNS): > 100 µM | TGI (SNB-75 CNS): > 100 µM | TGI (UACC-257 melanoma): > 100 µM

CC(=O)Nc1ccc2c(c1)CN1C(=O)c3ccccc3C1=N2
GI50 (MDA-MB-435): > 100 µM | TGI (MDA-MB-435): > 100 µM | GI50 (RPMI-8226 leukemia): > 100 µM | TGI (RPMI-8226 leukemia): > 100 µM | GI50 (UACC-62 melanoma): > 100 µM | TGI (UACC-62 melanoma): > 100 µM | GI50 (OVCAR-3 ovarian): > 100 µM | TGI (OVCAR-3 ovarian): > 100 µM | GI50 (OVCAR-5 ovarian): > 100 µM | TGI (OVCAR-5 ovarian): > 100 µM | GI50 (SR leukemia): > 100 µM | TGI (SR leukemia): > 100 µM | GI50 (HCC-2998 colon): > 100 µM | TGI (HCC-2998 colon): > 100 µM | GI50 (SNB-19 CNS): > 100 µM | TGI (SNB-19 CNS): > 100 µM | GI50 (K-562 leukemia): > 100 µM | TGI (K-562 leukemia): > 100 µM | GI50 (M14 melanoma): > 100 µM | TGI (M14 melanoma): > 100 µM | GI50 (T-47D breast): > 100 µM | TGI (T-47D breast): > 100 µM | GI50 (RXF 393 renal): > 100 µM | TGI (RXF 393 renal): > 100 µM | GI50 (MALME-3M melanoma): > 100 µM | TGI (MALME-3M melanoma): > 100 µM | GI50 (HCT-116 colon): > 100 µM | TGI (HCT-116 colon): > 100 µM | GI50 (SK-MEL-5 melanoma): > 100 µM | TGI (SK-MEL-5 melanoma): > 100 µM | GI50 (A498 renal): > 100 µM | TGI (A498 renal): > 100 µM | GI50 (KM12 colon): > 100 µM | TGI (KM12 colon): > 100 µM | GI50 (COLO 205 colon): > 100 µM | TGI (COLO 205 colon): > 100 µM | GI50 (CAKI-1 renal): > 100 µM | TGI (CAKI-1 renal): > 100 µM | GI50 (CCRF-CEM leukemia): > 100 µM | TGI (CCRF-CEM leukemia): > 100 µM | GI50 (IGROV1 ovarian): > 100 µM | TGI (IGROV1 ovarian): > 100 µM | GI50 (NCI-H23 lung): > 100 µM | TGI (NCI-H23 lung): > 100 µM | GI50 (HOP-62 NSCLC): > 100 µM | TGI (HOP-62 NSCLC): > 100 µM | GI50 (LOX IMVI melanoma): > 100 µM | TGI (LOX IMVI melanoma): > 100 µM | GI50 (ACHN renal): > 100 µM | TGI (ACHN renal): > 100 µM | GI50 (HS 578T breast): > 100 µM | TGI (HS 578T breast): > 100 µM | GI50 (HCT-15 colon): > 100 µM | TGI (HCT-15 colon): > 100 µM | GI50 (MOLT-4 leukemia): > 100 µM | TGI (MOLT-4 leukemia): > 100 µM | GI50 (SK-MEL-28 melanoma): > 100 µM | TGI (SK-MEL-28 melanoma): > 100 µM | GI50 (DU-145 prostate): > 100 µM | TGI (DU-145 prostate): > 100 µM | GI50 (HL-60(TB) leukemia): > 100 µM | TGI (HL-60(TB) leukemia): > 100 µM | GI50 (HOP-92 NSCLC): > 100 µM | TGI (HOP-92 NSCLC): > 100 µM | GI50 (NCI-H226 lung): > 100 µM | TGI (NCI-H226 lung): > 100 µM | GI50 (SF-268 CNS): > 100 µM | TGI (SF-268 CNS): > 100 µM | GI50 (NCI-H460 lung): > 100 µM | TGI (NCI-H460 lung): > 100 µM | GI50 (A549 NSCLC): > 100 µM | TGI (A549 NSCLC): > 100 µM | GI50 (EKVX NSCLC): > 100 µM | TGI (EKVX NSCLC): > 100 µM | GI50 (NCI/ADR-RES ovarian): > 100 µM | TGI (NCI/ADR-RES ovarian): > 100 µM | GI50 (PC-3 prostate): > 100 µM | TGI (PC-3 prostate): > 100 µM | GI50 (MDA-MB-231 breast): > 100 µM | TGI (MDA-MB-231 breast): > 100 µM | GI50 (SF-295 CNS): > 100 µM | TGI (SF-295 CNS): > 100 µM | GI50 (786-0 renal): > 100 µM | TGI (786-0 renal): > 100 µM | GI50 (SK-OV-3 ovarian): > 100 µM | TGI (SK-OV-3 ovarian): > 100 µM | GI50 (MCF7 breast): > 100 µM | TGI (MCF7 breast): > 100 µM | GI50 (SF-539 CNS): > 100 µM | TGI (SF-539 CNS): > 100 µM | GI50 (OVCAR-8 ovarian): > 100 µM | TGI (OVCAR-8 ovarian): > 100 µM | GI50 (SW-620 colon): > 100 µM | TGI (SW-620 colon): > 100 µM | GI50 (U251 CNS): > 100 µM | TGI (U251 CNS): > 100 µM | GI50 (OVCAR-4 ovarian): > 100 µM | TGI (OVCAR-4 ovarian): > 100 µM | GI50 (UO-31 renal): > 100 µM | TGI (UO-31 renal): > 100 µM | GI50 (SNB-75 CNS): > 100 µM | TGI (SNB-75 CNS): > 100 µM | GI50 (UACC-257 melanoma): > 100 µM | TGI (UACC-257 melanoma): > 100 µM
